Measured values as given in patent US20070021385A1, “Compositions and methods for wood preservation” (priority 2005, published 2007).

Columns and labels:
brown rots or white rots = assay: Accelerated decay testing in the lab; conditions: confirmed by accelerated decay testing in the lab
Excerpt: Provided herein is an organic composition and method for use thereof in treatment of cellulosic material, more particularly wood. The composition comprises an azole or quaternary ammonium fungicide compound, and a pyrethroid insecticide. The composition imparts to the treated wood resistance to both fungi and insects. […] This has been confirmed by accelerated decay testing in the lab.

decay fungi = assay: AWPA E7-01 field stake test, decay ratings, Gainesville, Florida; assay type: in vivo; design: Average Decay Ratings: scale not given here
Method: (§1) Preservative treating solutions were prepared by the mixing the concentrates in Example 1 with ethanol. The treated stakes were installed in Gainesville, Fla. for field performance evaluation following the procedure described in American Wood Preservers' Association (AWPA) Standard E7-01: “Standard Method of Evaluating Wood Preservatives by Field Tests with Stakes”.
(§2) Preservative treating solutions were prepared by the mixing the concentrates in Example 1 with toluene. The treated stakes were installed in Gainesville, Fla. for field performance evaluation following the procedure described in American Wood Preservers' Association (AWPA) Standard E7-01: “Standard Method of Evaluating Wood Preservatives by Field Tests with Stakes”.
Preservative treating solutions were prepared by the mixing the concentrates in Example 2 and 13. The treated stakes were installed in Gainesville, Fla. for field performance evaluation following the procedure described in American Wood Preservers' Association (AWPA) Standard E7-01: “Standard Method of Evaluating Wood Preservatives by Field Tests with Stakes”. […]
(§3) Preservative treating solutions were prepared by the mixing the concentrates in Example 1 with white spirits. The treated stakes were installed in Gainesville, Fla. for field performance evaluation following the procedure described in American Wood Preservers' Association (AWPA) Standard E7-01: “Standard Method of Evaluating Wood Preservatives by Field Tests with Stakes”.

termites = assay: AWPA E7-01 field stake test, termite ratings, Gainesville, Florida; assay type: in vivo; design: Average Termite Ratings: scale not given here
Method: as §1, §2
Preservative treating solutions were prepared by the mixing the concentrates in Example 2 and 13. The treated stakes were installed in Gainesville, Fla. for field performance evaluation following the procedure described in American Wood Preservers' Association (AWPA) Standard E7-01: “Standard Method of Evaluating Wood Preservatives by Field Tests with Stakes”.
as §3

Structure (SMILES): CC1(C)C(C=C(Cl)Cl)C1C(=O)OC(C#N)c1cccc(Oc2ccccc2)c1 (centres unmarked) [cypermethrin]
- fungicidal activity against brown rots or white rots (brown rots or white rots): do not have fungicidal activity

Structure (SMILES): Cc1c(COC(=O)[C@@H]2[C@H](/C=C(\Cl)C(F)(F)F)C2(C)C)cccc1-c1ccccc1 (racemic) [bifenthrin]
- fungicidal activity against brown rots or white rots (brown rots or white rots): do not have fungicidal activity

Structure (SMILES): CC(C)(C)C(O)(CCc1ccc(Cl)cc1)Cn1cncn1 (racemic) [Tebuconazole, (RS)-1-p-chlorophenyl-4,4-dimethyl-3-(1H -1,2,4-triazol-1-ylmethyl)pentan-3-ol]
- protection / bio-efficacy against fungal attack (in words) (decay fungi; different retention levels, text summary of Table 1A): certain degree of protection against fungal attack
- Average Decay Ratings (decay fungi; retention 0.32 kg/m^3, 12 months, Table 1A, Example 14 ethanol): 8.2
- Average Decay Ratings (decay fungi; retention 0.32 kg/m^3, 12 months, Table 2A, Example 15 toluene): 8.2
- Average Decay Ratings (decay fungi; retention 0.32 kg/m^3, 12 months, Table 3A, Example 16 (concentrates of Examples 2 and 13)): 8.2
- Average Decay Ratings (decay fungi; retention 0.32 kg/m^3, 24 months, Table 1A, Example 14 ethanol): 2.6
- Average Decay Ratings (decay fungi; retention 0.32 kg/m^3, 24 months, Table 2A, Example 15 toluene): 2.6
- Average Decay Ratings (decay fungi; retention 0.32 kg/m^3, 24 months, Table 3A, Example 16 (concentrates of Examples 2 and 13)): 2.6
- Average Decay Ratings (decay fungi; retention 0.32 kg/m^3, 36 months, Table 1A, Example 14 ethanol): 0.0
- Average Decay Ratings (decay fungi; retention 0.32 kg/m^3, 36 months, Table 2A, Example 15 toluene): 0.0
- Average Decay Ratings (decay fungi; retention 0.32 kg/m^3, 36 months, Table 3A, Example 16 (concentrates of Examples 2 and 13)): 0.0
- Average Decay Ratings (decay fungi; retention 0.32 kg/m^3, 48 months, Table 1A, Example 14 ethanol): 0.0
- Average Decay Ratings (decay fungi; retention 0.32 kg/m^3, 48 months, Table 2A, Example 15 toluene): 0.0
- Average Decay Ratings (decay fungi; retention 0.32 kg/m^3, 48 months, Table 3A, Example 16 (concentrates of Examples 2 and 13)): 0.0
- Average Decay Ratings (decay fungi; retention 0.48 kg/m^3, 12 months, Table 1A, Example 14 ethanol): 5.8
- Average Decay Ratings (decay fungi; retention 0.48 kg/m^3, 12 months, Table 2A, Example 15 toluene): 5.8
- Average Decay Ratings (decay fungi; retention 0.48 kg/m^3, 12 months, Table 3A, Example 16 (concentrates of Examples 2 and 13)): 5.8
- Average Decay Ratings (decay fungi; retention 0.48 kg/m^3, 24 months, Table 1A, Example 14 ethanol): 0.8
- Average Decay Ratings (decay fungi; retention 0.48 kg/m^3, 24 months, Table 2A, Example 15 toluene): 0.8
- Average Decay Ratings (decay fungi; retention 0.48 kg/m^3, 24 months, Table 3A, Example 16 (concentrates of Examples 2 and 13)): 0.8
- Average Decay Ratings (decay fungi; retention 0.48 kg/m^3, 36 months, Table 1A, Example 14 ethanol): 0.0
- Average Decay Ratings (decay fungi; retention 0.48 kg/m^3, 36 months, Table 2A, Example 15 toluene): 0.0
- Average Decay Ratings (decay fungi; retention 0.48 kg/m^3, 36 months, Table 3A, Example 16 (concentrates of Examples 2 and 13)): 0.0
- Average Decay Ratings (decay fungi; retention 0.48 kg/m^3, 48 months, Table 1A, Example 14 ethanol): 0.0
- Average Decay Ratings (decay fungi; retention 0.48 kg/m^3, 48 months, Table 2A, Example 15 toluene): 0.0
- Average Decay Ratings (decay fungi; retention 0.48 kg/m^3, 48 months, Table 3A, Example 16 (concentrates of Examples 2 and 13)): 0.0
- Average Decay Ratings (decay fungi; retention 0.64 kg/m^3, 12 months, Table 1A, Example 14 ethanol): 8.7
- Average Decay Ratings (decay fungi; retention 0.64 kg/m^3, 12 months, Table 2A, Example 15 toluene): 8.7
- Average Decay Ratings (decay fungi; retention 0.64 kg/m^3, 12 months, Table 3A, Example 16 (concentrates of Examples 2 and 13)): 8.7
- Average Decay Ratings (decay fungi; retention 0.64 kg/m^3, 24 months, Table 1A, Example 14 ethanol): 1.2
- Average Decay Ratings (decay fungi; retention 0.64 kg/m^3, 24 months, Table 2A, Example 15 toluene): 1.2
- Average Decay Ratings (decay fungi; retention 0.64 kg/m^3, 24 months, Table 3A, Example 16 (concentrates of Examples 2 and 13)): 1.2
- Average Decay Ratings (decay fungi; retention 0.64 kg/m^3, 36 months, Table 1A, Example 14 ethanol): 0.0
- Average Decay Ratings (decay fungi; retention 0.64 kg/m^3, 36 months, Table 2A, Example 15 toluene): 0.0
- Average Decay Ratings (decay fungi; retention 0.64 kg/m^3, 36 months, Table 3A, Example 16 (concentrates of Examples 2 and 13)): 0.0
- Average Decay Ratings (decay fungi; retention 0.64 kg/m^3, 48 months, Table 1A, Example 14 ethanol): 0.0
- Average Decay Ratings (decay fungi; retention 0.64 kg/m^3, 48 months, Table 2A, Example 15 toluene): 0.0
- Average Decay Ratings (decay fungi; retention 0.64 kg/m^3, 48 months, Table 3A, Example 16 (concentrates of Examples 2 and 13)): 0.0
- insect / termite attack on treated wood (in words) (termites; different retention levels, text summary of Table 1B): severe insect attack
- Average Termite Ratings (termites; retention 0.32 kg/m^3, 12 months, Table 1B, Example 14 ethanol): 4.2
- Average Termite Ratings (termites; retention 0.32 kg/m^3, 12 months, Table 2B, Example 15 toluene): 4.2
- Average Termite Ratings (termites; retention 0.32 kg/m^3, 12 months, Table 3B, Example 16 (concentrates of Examples 2 and 13)): 4.2
- Average Termite Ratings (termites; retention 0.32 kg/m^3, 24 months, Table 1B, Example 14 ethanol): 0.6
- Average Termite Ratings (termites; retention 0.32 kg/m^3, 24 months, Table 2B, Example 15 toluene): 0.6
- Average Termite Ratings (termites; retention 0.32 kg/m^3, 24 months, Table 3B, Example 16 (concentrates of Examples 2 and 13)): 0.6
- Average Termite Ratings (termites; retention 0.32 kg/m^3, 36 months, Table 1B, Example 14 ethanol): 0.0
- Average Termite Ratings (termites; retention 0.32 kg/m^3, 36 months, Table 2B, Example 15 toluene): 0.0
- Average Termite Ratings (termites; retention 0.32 kg/m^3, 36 months, Table 3B, Example 16 (concentrates of Examples 2 and 13)): 0.0
- Average Termite Ratings (termites; retention 0.32 kg/m^3, 48 months, Table 1B, Example 14 ethanol): 0.0
- Average Termite Ratings (termites; retention 0.32 kg/m^3, 48 months, Table 2B, Example 15 toluene): 0.0
- Average Termite Ratings (termites; retention 0.32 kg/m^3, 48 months, Table 3B, Example 16 (concentrates of Examples 2 and 13)): 0.0
- Average Termite Ratings (termites; retention 0.48 kg/m^3, 12 months, Table 1B, Example 14 ethanol): 4.5
- Average Termite Ratings (termites; retention 0.48 kg/m^3, 12 months, Table 2B, Example 15 toluene): 4.5
- Average Termite Ratings (termites; retention 0.48 kg/m^3, 12 months, Table 3B, Example 16 (concentrates of Examples 2 and 13)): 4.5
- Average Termite Ratings (termites; retention 0.48 kg/m^3, 24 months, Table 1B, Example 14 ethanol): 1.2
- Average Termite Ratings (termites; retention 0.48 kg/m^3, 24 months, Table 2B, Example 15 toluene): 1.2
- Average Termite Ratings (termites; retention 0.48 kg/m^3, 24 months, Table 3B, Example 16 (concentrates of Examples 2 and 13)): 1.2
- Average Termite Ratings (termites; retention 0.48 kg/m^3, 36 months, Table 1B, Example 14 ethanol): 0.0
- Average Termite Ratings (termites; retention 0.48 kg/m^3, 36 months, Table 2B, Example 15 toluene): 0.0
- Average Termite Ratings (termites; retention 0.48 kg/m^3, 36 months, Table 3B, Example 16 (concentrates of Examples 2 and 13)): 0.0
- Average Termite Ratings (termites; retention 0.48 kg/m^3, 48 months, Table 1B, Example 14 ethanol): 0.0
- Average Termite Ratings (termites; retention 0.48 kg/m^3, 48 months, Table 2B, Example 15 toluene): 0.0
- Average Termite Ratings (termites; retention 0.48 kg/m^3, 48 months, Table 3B, Example 16 (concentrates of Examples 2 and 13)): 0.0
- Average Termite Ratings (termites; retention 0.64 kg/m^3, 12 months, Table 1B, Example 14 ethanol): 4.8
- Average Termite Ratings (termites; retention 0.64 kg/m^3, 12 months, Table 2B, Example 15 toluene): 4.8
- Average Termite Ratings (termites; retention 0.64 kg/m^3, 12 months, Table 3B, Example 16 (concentrates of Examples 2 and 13)): 4.8
- Average Termite Ratings (termites; retention 0.64 kg/m^3, 24 months, Table 1B, Example 14 ethanol): 2.0
- Average Termite Ratings (termites; retention 0.64 kg/m^3, 24 months, Table 2B, Example 15 toluene): 2.0
- Average Termite Ratings (termites; retention 0.64 kg/m^3, 24 months, Table 3B, Example 16 (concentrates of Examples 2 and 13)): 2.0
- Average Termite Ratings (termites; retention 0.64 kg/m^3, 36 months, Table 1B, Example 14 ethanol): 0.0
- Average Termite Ratings (termites; retention 0.64 kg/m^3, 36 months, Table 2B, Example 15 toluene): 0.0
- Average Termite Ratings (termites; retention 0.64 kg/m^3, 36 months, Table 3B, Example 16 (concentrates of Examples 2 and 13)): 0.0
- Average Termite Ratings (termites; retention 0.64 kg/m^3, 48 months, Table 1B, Example 14 ethanol): 0.0
- Average Termite Ratings (termites; retention 0.64 kg/m^3, 48 months, Table 2B, Example 15 toluene): 0.0
- Average Termite Ratings (termites; retention 0.64 kg/m^3, 48 months, Table 3B, Example 16 (concentrates of Examples 2 and 13)): 0.0

Structure (SMILES): CC1(C)C(C=C(Cl)Cl)C1C(=O)OCc1cccc(Oc2ccccc2)c1 (centres unmarked) [permethrin]
- fungicidal activity against brown rots or white rots (brown rots or white rots): do not have fungicidal activity
